From US20190216707A1, “COMPOSITION FOR PREVENTING HAIR LOSS AND PROMOTING HAIR GROWTH, COMPRISING PHYTOESTROGEN AS AN ACTIVE INGREDIENT” (STEMORE CO., LTD., priority 2016, published 2019)

Columns and labels:
[1] = test system: immortalized dermal papilla cells (I-DPCs); assay: Proliferation of immortalized dermal papilla cells (Incucyte, phase object confluence); format: cell-based, Human; conditions: FIGS. 1A to 1D; for effect on the proliferation of I-DPCs (phase object confluence, %): 0.1 μM, 1 μM or 10 μM, cultured for 72 hours; for proliferation of I-DPCs: concentration of 1 μM to 10 μM
Method: Human-derived immortalized dermal papilla cells (I-DPCs; donated by Professor Sungyoung Kwan of the College of Medicine at Kyungpook National University; Shin, Seung-Hyun, et al. “Establishment and characterization of an immortalized human dermal papilla cell line.” BMB reports 44.8 (2011): 512-516.) were cultured in Follicle Dermal Papilla Cell Growth Medium supplemented with 10% fetal bovine serum […] and penicillin-streptomycin antibiotics for 3 days to prepare a dermal papilla cell line. On day 3 of culture, the cells cultured in the culture dish were transferred to a 96-well plate, and when the cells were attached to the bottom of each well, each well was treated with DO-10B, DO-14, DO-17, and DO-20 at a concentration of 10 μM and cultured for 48 hours.
In particular, the I-DP cell line was prepared by culturing under the same conditions as in Example <2-1>, and the cells were treated with DO-10B, DO-14, DO-17, and DO-20 at a concentration of 0.1 μM, 1 μM, or 10 μM in a cell culture medium, and then cultured for a total of 72 hours. At 0, 12, 24, 36, 48, 60, and 72 hours after the start of culture, the degree of saturation of cells attached to the bottom of each well (phase object confluence, %) was confirmed using the Incucyte System™.

[2] = test system: C3H/HeNCrljOri mice; assay: Hair growth promotion on the hair-removed back of mice; format: in vivo; conditions: PBS containing 1 μM compound subcutaneously injected, 2 weeks; for hair cycle induction / hair growth, visually confirmed, compared to the non-administered group: FIG. 2; for hair weight compared with the minoxidil-administered control / hair weight relative to the non-administered control: FIG. 3
From the text: In particular, to confirm the effects of DO-10B, DO-14, DO-17, and DO-20 on hair growth promotion when applied and subcutaneously administered, 6-week-old male C3H/HeNCrljOri mice were purchased and divided into a negative control, a positive control (minoxidil-treated group), and groups treated with DO-10B, DO-14, DO-17, and DO-20 to be used for experiments. To confirm a hair growth effect in the mice, when the mice became 6 weeks of age, first, the hair of the back of each mouse was removed using a clipper.
To confirm the effects of DO-10B, DO-14, DO-17, and DO-20 on hair growth promotion when subcutaneously injected, PBS containing 1 μM DO-10B, DO-14, DO-17, and DO-20 was subcutaneously injected into the hair-removed backs of mice at a daily cycle of 2 to 3 times, and the mice were raised for a total of 2 weeks. After the end of the rearing period, the hair of the back of each mouse was removed again using a mouse clipper, and the weight of the collected hair was measured to compare the hair weights of the non-administered group and the minoxidil-administered group.

| Compound | effect on the proliferation of I-DPCs (phase object confluence, %) [1] | proliferation of I-DPCs [1] | hair cycle induction [2] | hair growth, visually confirmed, compared to the non-administered group [2] | hair weight compared with the minoxidil-administered control [2] | hair weight relative to the non-administered control [2] |
| --- | --- | --- | --- | --- | --- | --- |
| COc1cc2c(cc1O)[C@@H]1COc3cc(O)ccc3[C@@H]1O2 [DO-17, (6aR, 11aR)-3,8-dihydroxy-9-methoxypterocarpan] | concentration-dependent manner | significantly promoted | induced to the anagen phase | significant hair growth | equal to or greater than that of the minoxidil-administered control | about two-fold or more |
| COc1ccc2c(c1)OC1c3ccc(O)cc3OCC21 (stereo not drawn) [DO-20, 3-hydroxy-9-methoxypterocarpan] | concentration-dependent manner | significantly promoted | induced to the anagen phase | significant hair growth | equal to or greater than that of the minoxidil-administered control | about two-fold or more |
| (3R)-5′-methoxyvestiol [DO-14] | concentration-dependent manner | significantly promoted | induced to the anagen phase | significant hair growth | equal to or greater than that of the minoxidil-administered control | about two-fold or more |
| violanone [DO-10B] | concentration-dependent manner | significantly promoted | induced to the anagen phase | significant hair growth | equal to or greater than that of the minoxidil-administered control | about two-fold or more |
